Data taken from patent publication EP4778511A1, “PHARMACEUTICAL COMPOSITION, DRUG-LOADED ROD CORE, IMPLANT, PREPARATION METHOD THEREFOR, AND USE THEREOF” (SHENYANG XINGHUA PHARMACEUTICAL TECHNOLOGY CO., LTD, priority 2023, dated 2025).
Where two headings read alike, the source gives them in different places. One block for each compound: values may come before it.

How the values were obtained:
[1] = Average particle size and PDI of paliperidone after wet grinding (nanonization); format: physicochemical
Method: Active pharmaceutical ingredient: stabilizer = 5:1. The ball mill speed was 400 r·min^-1, the grinding media was 0.2 mm of zirconia beads with a volume of 20 mL, and the grinding time was 50 min. The effects of stabilizer types Poloxamer 188 (P188), Tween 80, Poloxamer 407 (P407), SDS, HPMC on the average particle size and PDI (PDI is a dimensionless value reflecting the width of particle size distribution, ranging from 0 to 1, a smaller value indicates a more uniform and narrower particle size distribution) of the active pharmaceutical ingredient after grinding are investigated. Table 29 Effects of different stabilizers on average particle size and PDI
Active pharmaceutical ingredient: stabilizer = 5:1. The ball mill speed was 400 r·min^-1, Poloxamer 188 was used as the stabilizer, the grinding media was 20 mL, and the grinding time was 50 min. The effects of 0.1 mm, 0.2 mm, and 0.3 mm zirconia beads on the average particle size and PDI of the active pharmaceutical ingredient after grinding were investigated. Table 30 Effects of different types of grinding media on average particle size and PDI
Active pharmaceutical ingredient: stabilizer = 5:1. The ball mill speed was 400 r·min^-1, Poloxamer 188 was used as the stabilizer, the grinding media was 0.1 mm zirconia beads. The effects of grinding time for 15 min, 25 min, 35 min, 45 min, 50 min, 60 min on the average particle size and PDI of the active pharmaceutical ingredient after grinding were investigated. Table 31 Effects of different grinding time on average particle size and PDI

[2] = reagent table, cited from earlier work
[3] = stabilizer HPMC, 0.2 mm zirconia beads, grinding 50 min
[4] = stabilizer P188, 0.1 mm zirconia beads, grinding 15 min
[5] = stabilizer P188, 0.1 mm zirconia beads, grinding 25 min
[6] = stabilizer P188, 0.1 mm zirconia beads, grinding 35 min
[7] = stabilizer P188, 0.1 mm zirconia beads, grinding 45 min
[8] = stabilizer P188, 0.1 mm zirconia beads, grinding 50 min
[9] = stabilizer P188, 0.1 mm zirconia beads, grinding 60 min
[10] = stabilizer P188, 0.2 mm zirconia beads, grinding 50 min
[11] = stabilizer P188, 0.3 mm zirconia beads, grinding 50 min
[12] = stabilizer P407, 0.2 mm zirconia beads, grinding 50 min
[13] = stabilizer SDS, 0.2 mm zirconia beads, grinding 50 min
[14] = stabilizer Tween, 0.2 mm zirconia beads, grinding 50 min

- Average particle size [1, 3]: 330 nm
- PDI [1, 3]: 0.18
- Average particle size [1, 4]: 820 nm
- PDI [1, 4]: 0.13
- Average particle size [1, 5]: 646 nm
- PDI [1, 5]: 0.14
- Average particle size [1, 6]: 430 nm
- PDI [1, 6]: 0.09
- Average particle size [1, 7]: 246 nm
- PDI [1, 7]: 0.08
- Average particle size [1, 8]: 220 nm
- PDI [1, 8]: 0.06
- Average particle size [1, 9]: 253 nm
- PDI [1, 9]: 0.12
- Average particle size [1, 10]: 240 nm
- PDI [1, 10]: 0.15
- Average particle size [1, 11]: 420 nm
- PDI [1, 11]: 0.25
- Average particle size [1, 12]: 417 nm
- PDI [1, 12]: 0.26
- Average particle size [1, 13]: 320 nm
- PDI [1, 13]: 0.21
- Average particle size [1, 14]: 250 nm
- PDI [1, 14]: 0.07
SMILES: Cc1nc2n(c(=O)c1CCN1CCC(c3noc4cc(F)ccc34)CC1)CCCC2O (stereo not shown) [Paliperidone]
- solubility [2]: Paliperidone (purity 98%), molecular weight: 426.48, solubility: 30 µg/ml.

SMILES: N[C@@H](Cc1cc(I)c(Oc2cc(I)c(O)c(I)c2)c(I)c1)C(=O)O [levothyroxine sodium]
- solubility [2]: levothyroxine sodium (purity 99%), molecular weight: 800.87, solubility: 150 µg/ml

SMILES: C#C[C@]1(O)C=C[C@H]2[C@@H]3CCC4=CC(=O)CC[C@@H]4[C@H]3CC[C@@]21CC [Gestodene]
- solubility ([2]; in water): Gestodene (purity 98%), molecular weight: 310.43, insoluble in water

SMILES: CC(=O)O[C@H]1C(=O)[C@@]2(C)[C@H]([C@H](OC(=O)c3ccccc3)[C@]3(O)C[C@H](OC(=O)[C@H](O)[C@@H](NC(=O)c4ccccc4)c4ccccc4)C(C)=C1C3(C)C)[C@]1(OC(C)=O)CO[C@@H]1C[C@@H]2O [Paclitaxel]
- solubility ([2]; in water): Paclitaxel (purity 99%), molecular weight: 853.92, insoluble in water
